ChEMBL document CHEMBL4507319 (2021)

Key:
[1] = target: Calcium/calmodulin-dependent protein kinase kinase 1 (Homo sapiens) (UniProt Q8N5S9); test: CaMKK1(h) Eurofins kinase panel; conditions: Compound concentration 1.0 uM
[2] = target: Dual specificity protein kinase CLK3 (Homo sapiens) (UniProt P49761); test: CLK3(h) Eurofins kinase panel; conditions: Compound concentration 1.0 uM
[3] = target: T1, Myotonin-protein kinase (Homo sapiens) (UniProt Q09013); test: DMPK(h) Eurofins kinase panel; conditions: Compound concentration 1.0 uM
T1 sequence (whole entry): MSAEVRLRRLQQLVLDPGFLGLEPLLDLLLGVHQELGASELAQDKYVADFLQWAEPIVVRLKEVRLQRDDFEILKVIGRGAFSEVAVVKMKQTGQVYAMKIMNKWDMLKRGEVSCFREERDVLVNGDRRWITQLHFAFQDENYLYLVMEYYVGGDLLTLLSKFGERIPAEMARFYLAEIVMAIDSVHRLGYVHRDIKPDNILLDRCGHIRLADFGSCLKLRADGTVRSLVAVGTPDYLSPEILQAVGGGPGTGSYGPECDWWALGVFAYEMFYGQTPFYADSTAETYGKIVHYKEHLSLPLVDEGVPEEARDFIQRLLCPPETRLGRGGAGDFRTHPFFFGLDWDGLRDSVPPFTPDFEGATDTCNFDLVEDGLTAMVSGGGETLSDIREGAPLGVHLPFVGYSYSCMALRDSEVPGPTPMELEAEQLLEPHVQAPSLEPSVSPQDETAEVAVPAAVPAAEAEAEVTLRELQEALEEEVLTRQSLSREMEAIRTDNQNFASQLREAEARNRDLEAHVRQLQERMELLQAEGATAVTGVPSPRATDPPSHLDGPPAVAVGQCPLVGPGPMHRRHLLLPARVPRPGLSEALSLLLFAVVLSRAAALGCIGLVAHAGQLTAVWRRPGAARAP

[4] = target: Ephrin type-A receptor 7 (Homo sapiens) (UniProt Q15375); test: EphA7(h) Eurofins kinase panel; conditions: Compound concentration 1.0 uM
[5] = target: Macrophage colony-stimulating factor 1 receptor (Homo sapiens) (UniProt P07333); test: Fms(h) Eurofins kinase panel; conditions: Compound concentration 1.0 uM
[6] = target: T2, Rhodopsin kinase GRK7 (Homo sapiens) (UniProt Q8WTQ7); test: GRK7(h) Eurofins kinase panel; conditions: Compound concentration 1.0 uM
T2 sequence (whole entry): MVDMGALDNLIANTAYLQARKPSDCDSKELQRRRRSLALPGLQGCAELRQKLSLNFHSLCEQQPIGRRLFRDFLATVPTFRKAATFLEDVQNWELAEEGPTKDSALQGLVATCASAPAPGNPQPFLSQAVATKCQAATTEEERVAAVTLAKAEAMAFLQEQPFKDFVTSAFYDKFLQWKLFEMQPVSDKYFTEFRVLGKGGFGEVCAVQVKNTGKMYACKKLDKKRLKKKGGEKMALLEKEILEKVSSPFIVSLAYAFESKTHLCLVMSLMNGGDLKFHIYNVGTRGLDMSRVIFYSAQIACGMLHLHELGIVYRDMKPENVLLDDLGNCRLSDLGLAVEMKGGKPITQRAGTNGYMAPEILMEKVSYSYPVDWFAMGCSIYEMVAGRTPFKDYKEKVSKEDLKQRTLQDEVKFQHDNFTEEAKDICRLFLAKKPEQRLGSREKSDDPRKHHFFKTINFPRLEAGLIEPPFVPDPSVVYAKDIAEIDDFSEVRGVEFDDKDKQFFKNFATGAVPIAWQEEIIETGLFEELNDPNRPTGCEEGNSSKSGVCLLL

[7] = target: Insulin receptor (Homo sapiens) (UniProt P06213); test: IR(h), activated Eurofins kinase panel; conditions: Compound concentration 1.0 uM
[8] = target: Mitogen-activated protein kinase 9 (Homo sapiens) (UniProt P45984); test: JNK2alpha2(h) Eurofins kinase panel; conditions: Compound concentration 1.0 uM
[9] = target: MAP/microtubule affinity-regulating kinase 3 (Homo sapiens) (UniProt P27448); test: MARK3(h) Eurofins kinase panel; conditions: Compound concentration 1.0 uM
[10] = target: Ribosomal protein S6 kinase alpha-4 (Homo sapiens) (UniProt O75676); test: MSK2(h) Eurofins kinase panel; conditions: Compound concentration 1.0 uM
[11] = target: T3, Serine/threonine-protein kinase NLK (Homo sapiens) (UniProt Q9UBE8); test: NLK(h) Eurofins kinase panel; conditions: Compound concentration 1.0 uM
T3 sequence (whole entry): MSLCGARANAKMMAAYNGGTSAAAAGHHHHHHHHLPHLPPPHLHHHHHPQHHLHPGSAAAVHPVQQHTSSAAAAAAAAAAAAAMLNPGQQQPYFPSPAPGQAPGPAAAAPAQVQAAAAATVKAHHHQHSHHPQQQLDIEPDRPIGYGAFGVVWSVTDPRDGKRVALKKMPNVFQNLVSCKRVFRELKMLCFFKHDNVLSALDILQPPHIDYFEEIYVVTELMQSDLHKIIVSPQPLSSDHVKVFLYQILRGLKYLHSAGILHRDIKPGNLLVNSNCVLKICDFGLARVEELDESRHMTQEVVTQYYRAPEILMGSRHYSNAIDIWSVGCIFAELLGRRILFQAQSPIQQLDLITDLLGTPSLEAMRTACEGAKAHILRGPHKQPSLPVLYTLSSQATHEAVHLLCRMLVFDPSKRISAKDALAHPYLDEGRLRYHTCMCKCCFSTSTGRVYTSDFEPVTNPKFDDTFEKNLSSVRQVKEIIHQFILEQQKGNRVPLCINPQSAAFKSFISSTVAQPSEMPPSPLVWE

[12] = target: Serine/threonine-protein kinase MARK2 (Homo sapiens) (UniProt Q7KZI7); test: PAR-1Balpha(h) Eurofins kinase panel; conditions: Compound concentration 1.0 uM
[13] = target: Serine/threonine-protein kinase N1 (Homo sapiens) (UniProt Q16512); test: PRK1(h) Eurofins kinase panel; conditions: Compound concentration 1.0 uM
[14] = target: Receptor-interacting serine/threonine-protein kinase 2 (Homo sapiens) (UniProt O43353); test: RIPK2(h) Eurofins kinase panel; conditions: Compound concentration 1.0 uM
[15] = target: Ribosomal protein S6 kinase alpha-6 (Homo sapiens) (UniProt Q9UK32); test: Rsk4(h) Eurofins kinase panel; conditions: Compound concentration 1.0 uM
[16] = target: Serine/threonine-protein kinase SIK1 (Homo sapiens) (UniProt P57059); test: SIK(h) Eurofins kinase panel; conditions: Compound concentration 1.0 uM
[17] = target: PI3-kinase p110-delta/p85-alpha (Homo sapiens) (UniProt P27986+O00329); test: PI3 Kinase(p110d/p85a)(h) Eurofins kinase panel; assay type: protein-complex assay; conditions: Compound concentration 1.0 uM
COLO 201 = test: COLO 201, control cell line Proliferation assay; assay type: functional, Homo sapiens; conditions: time 3 day
L-363 = test: L-363 cell line Proliferation assay; assay type: functional, Homo sapiens; conditions: time 3 day
CWR22R = test: 22Rv1 cell line Proliferation assay; assay type: functional, Homo sapiens; conditions: time 6 day

Chain of Insulin receptor (Homo sapiens) (P06213 28-758 limits assumed): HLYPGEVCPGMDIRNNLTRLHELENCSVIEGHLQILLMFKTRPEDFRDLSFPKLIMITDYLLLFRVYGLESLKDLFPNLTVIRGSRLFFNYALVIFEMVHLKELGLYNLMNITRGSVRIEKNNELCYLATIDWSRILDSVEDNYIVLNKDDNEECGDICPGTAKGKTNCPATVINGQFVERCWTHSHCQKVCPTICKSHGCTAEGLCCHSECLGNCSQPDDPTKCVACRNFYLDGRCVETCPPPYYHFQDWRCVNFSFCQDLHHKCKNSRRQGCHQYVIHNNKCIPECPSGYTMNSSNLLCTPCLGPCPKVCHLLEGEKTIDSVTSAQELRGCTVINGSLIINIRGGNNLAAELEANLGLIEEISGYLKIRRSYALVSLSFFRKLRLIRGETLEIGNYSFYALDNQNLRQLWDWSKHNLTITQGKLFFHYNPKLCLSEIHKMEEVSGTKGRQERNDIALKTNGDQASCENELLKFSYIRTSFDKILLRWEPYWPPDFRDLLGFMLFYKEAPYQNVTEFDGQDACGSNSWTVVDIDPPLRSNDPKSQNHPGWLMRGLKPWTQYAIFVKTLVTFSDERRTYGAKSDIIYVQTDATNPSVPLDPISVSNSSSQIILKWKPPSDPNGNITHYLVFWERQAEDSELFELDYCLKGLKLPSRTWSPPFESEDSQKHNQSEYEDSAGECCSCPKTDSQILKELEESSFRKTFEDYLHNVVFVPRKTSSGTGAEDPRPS
Chain of Insulin receptor (Homo sapiens) (P06213 763-1382 limits assumed): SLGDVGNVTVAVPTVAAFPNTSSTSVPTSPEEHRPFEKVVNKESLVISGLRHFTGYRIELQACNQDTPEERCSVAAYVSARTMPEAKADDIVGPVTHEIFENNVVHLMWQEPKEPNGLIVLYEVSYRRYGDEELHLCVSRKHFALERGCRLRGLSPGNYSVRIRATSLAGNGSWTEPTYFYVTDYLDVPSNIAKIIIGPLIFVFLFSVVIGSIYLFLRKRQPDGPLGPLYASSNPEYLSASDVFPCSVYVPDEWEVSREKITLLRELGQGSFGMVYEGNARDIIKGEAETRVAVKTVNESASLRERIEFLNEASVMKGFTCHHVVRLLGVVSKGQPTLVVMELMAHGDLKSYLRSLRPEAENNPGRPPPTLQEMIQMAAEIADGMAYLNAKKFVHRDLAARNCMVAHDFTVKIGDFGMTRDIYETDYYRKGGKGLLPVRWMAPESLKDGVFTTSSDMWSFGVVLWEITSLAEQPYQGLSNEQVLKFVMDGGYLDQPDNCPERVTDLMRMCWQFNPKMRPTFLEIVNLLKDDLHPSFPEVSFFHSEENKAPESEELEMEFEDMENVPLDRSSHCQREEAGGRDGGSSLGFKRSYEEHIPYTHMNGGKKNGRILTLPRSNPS
Chain of Calcium/calmodulin-dependent protein kinase kinase 1 (Homo sapiens) (Q8N5S9 whole entry, looked up): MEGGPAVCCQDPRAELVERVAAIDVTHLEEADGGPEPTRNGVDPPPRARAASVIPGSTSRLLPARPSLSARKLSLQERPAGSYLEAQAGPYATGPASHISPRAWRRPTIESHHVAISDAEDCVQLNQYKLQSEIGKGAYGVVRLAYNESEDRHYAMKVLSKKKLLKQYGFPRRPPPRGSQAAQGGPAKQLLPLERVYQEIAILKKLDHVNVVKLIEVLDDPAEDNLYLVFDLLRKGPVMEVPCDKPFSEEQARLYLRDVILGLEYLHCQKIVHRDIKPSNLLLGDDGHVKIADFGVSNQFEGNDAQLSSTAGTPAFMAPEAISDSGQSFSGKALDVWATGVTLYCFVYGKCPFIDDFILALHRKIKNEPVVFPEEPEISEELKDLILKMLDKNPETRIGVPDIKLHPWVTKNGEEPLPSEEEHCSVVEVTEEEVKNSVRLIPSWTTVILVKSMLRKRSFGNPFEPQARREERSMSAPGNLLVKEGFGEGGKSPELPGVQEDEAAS
Chain of Ribosomal protein S6 kinase alpha-6 (Homo sapiens) (Q9UK32 whole entry): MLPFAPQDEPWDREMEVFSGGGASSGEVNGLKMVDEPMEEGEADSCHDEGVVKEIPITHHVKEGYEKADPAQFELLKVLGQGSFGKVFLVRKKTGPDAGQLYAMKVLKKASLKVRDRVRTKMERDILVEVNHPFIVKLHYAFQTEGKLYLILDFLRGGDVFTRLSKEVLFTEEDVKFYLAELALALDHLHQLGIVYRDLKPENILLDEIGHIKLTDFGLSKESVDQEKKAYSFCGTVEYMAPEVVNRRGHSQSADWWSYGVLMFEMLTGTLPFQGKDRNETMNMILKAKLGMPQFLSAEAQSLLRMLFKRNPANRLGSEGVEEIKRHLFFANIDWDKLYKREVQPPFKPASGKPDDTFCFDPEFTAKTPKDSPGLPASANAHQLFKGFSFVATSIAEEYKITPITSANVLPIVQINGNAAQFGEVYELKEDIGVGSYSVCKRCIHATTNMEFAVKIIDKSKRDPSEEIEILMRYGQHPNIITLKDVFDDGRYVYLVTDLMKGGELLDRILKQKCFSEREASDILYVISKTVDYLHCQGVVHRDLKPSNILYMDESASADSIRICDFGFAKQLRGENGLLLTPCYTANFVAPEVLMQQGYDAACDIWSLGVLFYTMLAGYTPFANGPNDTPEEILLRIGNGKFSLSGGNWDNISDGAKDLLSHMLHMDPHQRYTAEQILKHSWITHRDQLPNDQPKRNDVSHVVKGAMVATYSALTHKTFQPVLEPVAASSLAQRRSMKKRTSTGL
Chain of Serine/threonine-protein kinase N1 (Homo sapiens) (Q16512 2-942 limits assumed): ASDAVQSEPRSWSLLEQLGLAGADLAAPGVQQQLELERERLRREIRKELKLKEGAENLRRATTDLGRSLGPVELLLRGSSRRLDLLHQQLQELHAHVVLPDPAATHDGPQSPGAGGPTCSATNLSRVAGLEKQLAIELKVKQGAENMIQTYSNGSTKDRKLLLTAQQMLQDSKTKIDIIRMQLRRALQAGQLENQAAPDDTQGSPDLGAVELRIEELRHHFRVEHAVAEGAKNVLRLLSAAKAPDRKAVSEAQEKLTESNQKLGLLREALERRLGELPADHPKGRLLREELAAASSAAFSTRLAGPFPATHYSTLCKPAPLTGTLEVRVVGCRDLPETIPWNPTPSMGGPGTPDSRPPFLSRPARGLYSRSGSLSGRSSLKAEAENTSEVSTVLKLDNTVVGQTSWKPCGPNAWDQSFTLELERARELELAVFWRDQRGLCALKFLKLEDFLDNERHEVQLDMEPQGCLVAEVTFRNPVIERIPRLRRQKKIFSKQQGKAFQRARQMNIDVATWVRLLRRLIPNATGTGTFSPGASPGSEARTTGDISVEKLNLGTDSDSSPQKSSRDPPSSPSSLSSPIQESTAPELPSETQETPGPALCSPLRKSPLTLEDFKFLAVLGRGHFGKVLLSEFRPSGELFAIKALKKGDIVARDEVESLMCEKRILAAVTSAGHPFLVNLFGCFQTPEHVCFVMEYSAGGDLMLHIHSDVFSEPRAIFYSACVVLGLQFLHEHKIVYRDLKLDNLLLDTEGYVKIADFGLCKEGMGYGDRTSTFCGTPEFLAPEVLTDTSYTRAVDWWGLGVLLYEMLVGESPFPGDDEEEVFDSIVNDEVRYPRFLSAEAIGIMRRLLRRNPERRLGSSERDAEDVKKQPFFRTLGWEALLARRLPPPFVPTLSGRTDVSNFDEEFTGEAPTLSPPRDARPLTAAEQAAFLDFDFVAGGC
Chain of Ephrin type-A receptor 7 (Homo sapiens) (Q15375 28-998 limits assumed): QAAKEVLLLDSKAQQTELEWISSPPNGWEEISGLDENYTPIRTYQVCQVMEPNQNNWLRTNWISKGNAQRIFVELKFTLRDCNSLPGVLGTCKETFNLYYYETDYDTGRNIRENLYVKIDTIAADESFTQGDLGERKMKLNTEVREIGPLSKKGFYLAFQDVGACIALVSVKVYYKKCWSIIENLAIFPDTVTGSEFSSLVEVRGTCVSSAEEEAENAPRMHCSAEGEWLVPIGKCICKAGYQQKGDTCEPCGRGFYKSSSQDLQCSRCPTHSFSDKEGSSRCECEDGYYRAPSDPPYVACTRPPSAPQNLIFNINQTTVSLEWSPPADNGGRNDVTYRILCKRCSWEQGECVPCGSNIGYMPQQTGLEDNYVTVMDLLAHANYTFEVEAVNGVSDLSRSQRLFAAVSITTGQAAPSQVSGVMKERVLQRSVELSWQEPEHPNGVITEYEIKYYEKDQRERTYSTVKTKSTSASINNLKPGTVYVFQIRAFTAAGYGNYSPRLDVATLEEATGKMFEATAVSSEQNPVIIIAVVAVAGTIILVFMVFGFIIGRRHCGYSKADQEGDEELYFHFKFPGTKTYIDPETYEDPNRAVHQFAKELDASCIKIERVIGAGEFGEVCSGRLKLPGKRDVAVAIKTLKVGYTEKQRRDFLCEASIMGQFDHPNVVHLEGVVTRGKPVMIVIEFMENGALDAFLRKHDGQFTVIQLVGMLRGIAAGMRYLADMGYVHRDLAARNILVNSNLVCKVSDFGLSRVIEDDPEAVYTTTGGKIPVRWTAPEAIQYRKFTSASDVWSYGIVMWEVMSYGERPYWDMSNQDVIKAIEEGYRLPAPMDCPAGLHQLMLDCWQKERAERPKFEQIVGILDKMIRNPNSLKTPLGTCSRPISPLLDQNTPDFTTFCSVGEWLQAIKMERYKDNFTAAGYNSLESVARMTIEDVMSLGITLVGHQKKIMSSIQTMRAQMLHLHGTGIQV
Chain of Dual specificity protein kinase CLK3 (Homo sapiens) (P49761 whole entry, looked up): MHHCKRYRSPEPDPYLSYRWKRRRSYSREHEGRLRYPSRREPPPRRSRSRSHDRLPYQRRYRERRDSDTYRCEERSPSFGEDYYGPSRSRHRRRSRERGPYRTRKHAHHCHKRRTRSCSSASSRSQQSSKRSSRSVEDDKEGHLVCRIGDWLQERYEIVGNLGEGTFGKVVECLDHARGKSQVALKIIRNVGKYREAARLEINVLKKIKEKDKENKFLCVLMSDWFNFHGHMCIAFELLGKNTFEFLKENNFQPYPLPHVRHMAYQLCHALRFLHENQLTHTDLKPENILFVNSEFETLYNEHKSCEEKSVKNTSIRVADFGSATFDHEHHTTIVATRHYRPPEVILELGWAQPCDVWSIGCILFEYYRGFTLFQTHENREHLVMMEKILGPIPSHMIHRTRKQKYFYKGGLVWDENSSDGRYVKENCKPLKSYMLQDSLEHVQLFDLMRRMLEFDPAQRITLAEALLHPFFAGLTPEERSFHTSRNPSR

CCc1ccccc1C(=O)Nc1n[nH]c2c(C)c(F)c(C3C(C#N)=C(C)N(C)C(C)=C3C#N)cc12 [BAY-3827]
% residual kinase activity [1]: 95% | % residual kinase activity [2]: 109% | % residual kinase activity [3]: 91% | % residual kinase activity [4]: 91% | % residual kinase activity [5]: 99% | % residual kinase activity [6]: 78% | % residual kinase activity [7]: 89% | % residual kinase activity [8]: 88% | % residual kinase activity [9]: 70% | % residual kinase activity [10]: 27% | % residual kinase activity [11]: 91% | % residual kinase activity [12]: 32% | % residual kinase activity [13]: 74% | % residual kinase activity [14]: 115% | % residual kinase activity [15]: 2% | % residual kinase activity [16]: 86% | % residual kinase activity [17]: 103% | Cell Proliferation IC50 (COLO 201): 16 µM | Cell Proliferation IC50 (L-363): 10.8 µM | Cell Proliferation IC50 (CWR22R): 5.55 µM
